Converted amounts (≈) assume the structure as drawn. Like-named read-outs stand apart in the source and are kept apart here.
How the values were obtained:
hCA I [1] = biological target: T1, hCA I (Homo sapiens, UniProt P00915); assay: stopped-flow CO2 hydration; format: biochemical; conditions: read-out: KI (nM) * / Human Isoforms / hCA I
T1 construct: gene CA1; purchased from Merck
Text: stopped-flow CO2 hydration on hCA I

hCA II = biological target: T2, hCA II (Homo sapiens, UniProt P00918); assay: stopped-flow CO2 hydration; format: biochemical; conditions: read-out: KI (nM) * / Human Isoforms / hCA II
T2 construct: gene CA2; purchased from Merck
Text: stopped-flow CO2 hydration on hCA II

hCA IX [2] = biological target: T3, hCA IX (Homo sapiens, UniProt Q16790); assay: stopped-flow CO2 hydration; format: biochemical; conditions: read-out: KI (nM) * / Human Isoforms / hCA IX
T3 construct: gene CA9
Text: stopped-flow CO2 hydration on hCA IX

PgiγCA = biological target: T4, PgiγCA; assay: stopped-flow CO2 hydration; format: biochemical, Porphyromonas gingivalis; conditions: pH […] HEPES, […] Na2SO4, […] min preincubation, r.t.; read-out: KI (nM) * / Bacterial Isoforms / Pgi γCA
T4 construct: gene PgiCA; recombinant, obtained in-house

HpαCA = biological target: T5, HpαCA (Helicobacter pylori, UniProt B5Z8I0); assay: stopped-flow CO2 hydration; format: biochemical
T5 construct: gene HPG27_1129; recombinant, obtained in-house; PDB 4XFW is given for docking only
T5 sequence (B5Z8I0 22-247): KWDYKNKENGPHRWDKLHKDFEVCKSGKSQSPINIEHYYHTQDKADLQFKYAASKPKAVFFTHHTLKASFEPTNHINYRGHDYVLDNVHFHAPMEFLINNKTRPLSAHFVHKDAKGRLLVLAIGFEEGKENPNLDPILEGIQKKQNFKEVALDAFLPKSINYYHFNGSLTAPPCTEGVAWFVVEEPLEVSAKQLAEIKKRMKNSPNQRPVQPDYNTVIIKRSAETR

EcoβCA [3] = biological target: T6, EcoβCA (Escherichia coli, UniProt P61517); assay: stopped-flow CO2 hydration; format: biochemical; conditions: read-out: KI (nM) * / Bacterial Isoforms / Eco βCA
T6 construct: gene can; recombinant, obtained in-house

hCA XII [4] = biological target: T7, hCA XII (Homo sapiens, UniProt O43570); assay: stopped-flow CO2 hydration; format: biochemical; conditions: read-out: KI (nM) * / Human Isoforms / hCA XII
T7 construct: gene CA12
Text: stopped-flow CO2 hydration on hCA XII

HpβCA = biological target: T8, HpβCA (Helicobacter pylori, UniProt Q9ZN54); assay: stopped-flow CO2 hydration; format: biochemical; conditions: read-out: KI (nM) * / Bacterial Isoforms / Hp βCA
T8 construct: gene cynT; recombinant, obtained in-house
T8 sequence (Q9ZN54 1-221): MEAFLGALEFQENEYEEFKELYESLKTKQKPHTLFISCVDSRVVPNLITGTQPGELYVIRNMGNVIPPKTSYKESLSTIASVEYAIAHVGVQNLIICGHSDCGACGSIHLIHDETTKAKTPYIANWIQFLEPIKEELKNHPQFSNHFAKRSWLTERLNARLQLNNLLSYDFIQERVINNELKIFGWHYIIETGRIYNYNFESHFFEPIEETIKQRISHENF

PsCA3 [5] = biological target: T9, PsCA3 (Pseudomonas aeruginosa, UniProt Q9HVB9); assay: stopped-flow CO2 hydration; format: biochemical; conditions: read-out: KI (nM) * / Bacterial Isoforms / Ps CA3
T9 construct: gene PA4676; recombinant, obtained in-house
T9 sequence (Q9HVB9 1-215): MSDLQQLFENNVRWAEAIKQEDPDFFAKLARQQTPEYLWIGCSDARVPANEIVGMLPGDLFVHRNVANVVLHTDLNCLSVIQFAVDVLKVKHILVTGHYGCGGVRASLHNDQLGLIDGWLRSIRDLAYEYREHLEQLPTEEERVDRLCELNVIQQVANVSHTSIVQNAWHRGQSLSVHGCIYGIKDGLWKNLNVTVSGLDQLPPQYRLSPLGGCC

PgiβCA = biological target: T10, PgiβCA; assay: stopped-flow CO2 hydration; format: biochemical, Porphyromonas gingivalis; conditions: pH […] HEPES, […] Na2SO4, […] min preincubation, r.t.; read-out: KI (nM) * / Bacterial Isoforms / Pgi βCA
T10 construct: gene PgiCAb; recombinant, obtained in-house

H. pylori ATCC 43504 = test system: T11, H. pylori ATCC 43504; assay: microbe, parasite or virus in culture; design: species or system Helicobacter pylori ATCC 43504; MIC by broth microdilution, alamarBlue and CFU count; MBC by CFU count; conditions: Helicobacter pylori, ATCC43504
T11 construct: ATCC 43504
Protocol: H. pylori ATCC 43504 was cultured on a Columbia Agar base (Becton Dickinson and Company, Franklin Lakes, NJ, USA) supplemented with 10% horse serum (Merck, St. Louis, MO, USA) and 0.25% yeast extract (Oxoid Ltd., Hampshire, UK), incubated at 37 °C for 72 h in a microaerophilic atmosphere (CampyGen, Thermo Fisher Scientific, Milan, Italy). Colonies were collected and transferred into 10 mL of Brain Heart Infusion broth (BHI, Oxoid Ltd., Hampshire, UK) supplemented with 5% (v/v) of fetal bovine serum (FBS, Merck, Milan, Italy) and incubated overnight at 37 °C, at 125 rpm under microaerophilic conditions. After 18 h of incubation, the broth culture was diluted to obtain a bacterial suspension of 10^6 CFU/mL. MICs were determined by three different assays: the broth micro-dilution method, the alamarBlue assay, and the CFU count. […] This bacterium was selected based on the inhibitory potency evidenced by the two series of azobenzenesulfonamides against the HpCAs.

EcoβCA [6] = biological target: T6, EcoβCA; assay: biochemical; conditions: read-out: Bacterial Isoforms / Eco βCA
Protocol: (§1) An Applied Photophysics stopped-flow instrument was used to evaluate the ability of the test compounds to inhibit CA-catalyzed CO2 hydration. […] The CO2 concentrations ranged from 1.7 to 17 mM for the determination of the kinetic parameters and inhibition constants. Enzyme concentrations spanned from 5 to 12 nM. Stock solutions of the inhibitor (0.1 mM) were prepared in distilled–deionized water, and dilutions up to 0.01 nM were prepared with the assay buffer. Inhibitor and enzyme solutions were preincubated for 15 min at r.t. for the formation of the E–I complex. The inhibition constants were obtained by non-linear least-squares methods using PRISM 3 and the Cheng–Prusoff equation and represent the mean from at least three different determinations. Apart from human CAs I and II purchased from Merck, all the bacterial CAs were recombinant and obtained in-house. Compounds 4a–j and 5a–j were tested on a large panel of human and bacterial isoenzymes belonging to different CA families, evaluating their inhibitory activity through the CO2 hydration activity assay by means of the stopped-flow technique, and the inhibitory constants (KIs) are reported in Table 1 and Table 2, respectively. In particular, we tested the hypoxic tumor-associated hCAs IX and XII, and bacterial isoforms involved in several infectious diseases, such as those caused by H. pylori (HpαCA and HpβCA), Porphyromonas gingivalis (PgiβCA and PgiγCA), Escherichia coli (EcoβCA), Pseudomonas aeruginosa (PsCA3, belonging to the β-class), Mammaliicoccus (Staphylococcus) sciuri (MscCA, belonging to the β-class), and Streptococcus mutans (SmuCA, belonging to the β-class). The inhibition of human physiologically relevant isoforms I and II was also investigated in order to assess the compounds’ selectivity. Our main aim was to rationalize the structural requirements of sulfonamide-containing compounds useful for targeting HpCAs, in order to gain a larger knowledge for further optimization studies focusing on isoform selectivity. In fact, although the tested human and bacterial isoforms present a low degree of sequence similarity, they catalyze the same reaction and contain the catalytically active zinc ion in the active site. Thus, a comparison of the data obtained from different members of this large superfamily has a high relevance in the field. By observing Table 1 and Table 2, interesting structure–activity relationship (SAR) considerations can be inferred.

PsCA3 [7] = biological target: T9, PsCA3; assay: biochemical; conditions: read-out: Bacterial Isoforms / Ps CA3
Protocol: as §1

hCA I [8] = biological target: T1, hCA I; assay: biochemical; conditions: read-out: Human Isoforms / hCA I
Protocol: as §1

hCA IX [9] = biological target: T3, hCA IX; assay: biochemical; conditions: read-out: Human Isoforms / hCA IX
Protocol: as §1

hCA XII [10] = biological target: T7, hCA XII; assay: biochemical; conditions: read-out: Human Isoforms / hCA XII
Protocol: as §1

[11] = read-out: KI (nM) * / Bacterial Isoforms / Hp αCA

T6 sequence (P61517 whole entry, canonical isoform): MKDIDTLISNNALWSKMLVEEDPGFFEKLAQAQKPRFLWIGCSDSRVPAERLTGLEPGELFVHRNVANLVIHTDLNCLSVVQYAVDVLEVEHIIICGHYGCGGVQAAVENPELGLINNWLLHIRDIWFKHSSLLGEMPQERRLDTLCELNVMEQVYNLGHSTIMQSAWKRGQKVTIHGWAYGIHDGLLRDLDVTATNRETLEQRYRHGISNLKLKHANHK
T7 sequence (O43570 30-289 limits assumed): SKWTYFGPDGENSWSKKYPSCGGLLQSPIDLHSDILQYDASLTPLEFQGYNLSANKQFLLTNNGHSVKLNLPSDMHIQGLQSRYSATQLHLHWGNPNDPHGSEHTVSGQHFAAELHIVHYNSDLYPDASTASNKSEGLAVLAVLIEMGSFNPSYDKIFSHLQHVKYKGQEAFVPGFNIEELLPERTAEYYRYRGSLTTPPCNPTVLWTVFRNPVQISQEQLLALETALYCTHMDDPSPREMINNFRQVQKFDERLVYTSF
T1 sequence (P00915 2-261): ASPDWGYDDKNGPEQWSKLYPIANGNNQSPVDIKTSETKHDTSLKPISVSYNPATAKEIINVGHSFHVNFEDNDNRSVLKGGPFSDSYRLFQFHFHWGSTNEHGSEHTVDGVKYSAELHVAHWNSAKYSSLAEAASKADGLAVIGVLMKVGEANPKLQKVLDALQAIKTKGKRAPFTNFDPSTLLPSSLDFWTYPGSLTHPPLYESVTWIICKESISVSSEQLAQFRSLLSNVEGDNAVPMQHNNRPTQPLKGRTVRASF

SMILES | Ki (hCA I [1]) [nM] | Ki (hCA II) [nM] | Ki (hCA IX [2]) [nM] | Ki (PgiγCA) [nM] | Ki (HpαCA; [11]) [nM] | Ki (EcoβCA [3]) [nM] | Ki (hCA XII [4]) [nM] | Ki (HpβCA) [nM] | Ki (PsCA3 [5]) [nM] | Ki (PgiβCA) [nM] | MBC (H. pylori ATCC 43504) [µg/mL] | MIC (H. pylori ATCC 43504) [µg/mL] | Ki (HpαCA; read-out: KI (nM) / Bacterial Isoforms / Hp αCA) [nM] | Ki (EcoβCA [6]) [nM] | Ki (PsCA3 [7]) [nM] | Ki (hCA I [8]) [nM] | Ki (hCA IX [9]) [nM] | Ki (hCA XII [10]) [nM]
Cc1cc(/N=N/c2ccc(S(N)(=O)=O)cc2)c(C)cc1O [4f, (E)-4-((4-hydroxy-2,5-dimethylphenyl)diazenyl)benzenesulfonamide] | 5.7 | 1.9 | 97.1 | 472 | 69.4 | 867 | 56.7 | 70.6 | 191 | 3760 | 32 (≈ 105 µM) | 32 (≈ 105 µM) |  |  |  |  |  | 
Cc1cc(O)cc(C)c1/N=N/c1ccc(S(N)(=O)=O)cc1 [4g, (E)-4-((4-hydroxy-2,6-dimethylphenyl)diazenyl)benzenesulfonamide] | 4.9 | 3.7 | 171 | 939 | 142 | 550 | 63.9 | 74.3 | 879 | 3670 | 32 (≈ 105 µM) | 16 (≈ 52.4 µM) |  |  |  |  |  | 
Cc1ccc(O)c(/N=N/c2ccc(S(N)(=O)=O)cc2)c1 [4h, (E)-4-((2-hydroxy-5-methylphenyl)diazenyl)benzenesulfonamide] | 68.4 | 6.6 | 184 | 772 | 130 | 360 | 9.6 | 127 | 980 | 3850 | 64 (≈ 220 µM) | 32 (≈ 110 µM) |  |  |  |  |  | 
Cc1cc(/N=N/c2ccc(S(N)(=O)=O)cc2)ccc1O [4i, (E)-4-((4-hydroxy-3-methylphenyl)diazenyl)benzenesulfonamide] | 4.4 | 3.4 | 181 | 6330 | 140 | 2110 | 7.5 | 119 | 114 | 2070 | 64 (≈ 220 µM) | 32 (≈ 110 µM) |  |  |  |  |  | 
CS(=O)(=O)Nc1ccc(N=Nc2ccccc2)cc1 [5i] |  |  |  |  |  |  |  |  |  |  | 32 (≈ 116 µM) | 16 (≈ 58.1 µM) | 89.8 | 6950 | 9280 | 5990 | 599 | 2240
CC1(C)S[C@@H]2[C@H](NC(=O)[C@H](N)c3ccc(O)cc3)C(=O)N2[C@H]1C(=O)O [Amoxicillin] |  |  |  |  |  |  |  |  |  |  | 0.064 (≈ 0.175 µM) | 0.064 (≈ 0.175 µM) |  |  |  |  |  | 
